Measurements reported in BindingDB's records for doi:10.1016/s0960-894x(03)00532-8 (British Biotech Pharmaceuticals, 2003).

Molecular target: Peptide deformylase (Escherichia coli) (UniProt P0A6K3)
Assay: Inhibition against Escherichia coli peptide deformylase

Peptide deformylase (Escherichia coli), sequence (P0A6K3 whole entry, looked up): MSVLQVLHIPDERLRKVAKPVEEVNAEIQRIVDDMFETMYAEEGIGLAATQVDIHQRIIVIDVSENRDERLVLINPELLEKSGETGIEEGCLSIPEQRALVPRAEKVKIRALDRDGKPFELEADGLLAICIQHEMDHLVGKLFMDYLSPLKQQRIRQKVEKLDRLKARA

Going from `CN(C)C(=O)[C@@H](NC(=O)[C@@H](CN(O)C=O)C1CCCC1)C(C)(C)C` [(S)-2-[(R)-2-Cyclopentyl-3-(formyl-hydroxy-amino)-propionylamino]-3,3,N,N-tetramethyl-butyramide] to `CN(C)C(=O)[C@@H](NC(=O)[C@H](CC1CCCCC1)CN(O)C=O)C(C)(C)C` [(S)-2-[(R)-2-Cyclohexylmethyl-3-(formyl-hydroxy-amino)-propionylamino]-3,3,N,N-tetramethyl-butyramide], the IC50 falls from 0.02 µM to 0.006 µM (3.3-fold).

First: CC(C)C[C@H](CN(O)C=O)C(=O)N[C@H](C(=O)N(C)C)C(C)(C)C [(R)-2-[(Formyl-hydroxy-amino)-methyl]-4-methyl-pentanoic acid ((S)-1-dimethylcarbamoyl-2,2-dimethyl-propyl)-amide]
Second: CC(C)CC[C@H](CN(O)C=O)C(=O)N[C@H](C(=O)N(C)C)C(C)(C)C [(R)-2-[(Formyl-hydroxy-amino)-methyl]-5-methyl-hexanoic acid ((S)-1-dimethylcarbamoyl-2,2-dimethyl-propyl)-amide]
The IC50 of the first is 2-fold lower: 0.01 µM for the first, 0.02 µM for the second. The first is the more potent here.

First: C=CCC[C@H](CN(O)C=O)C(=O)N[C@H](C(=O)N(C)C)C(C)(C)C [(R)-2-[(Formyl-hydroxy-amino)-methyl]-hex-5-enoic acid ((S)-1-dimethylcarbamoyl-2,2-dimethyl-propyl)-amide]
Second: C=CC[C@H](CN(O)C=O)C(=O)N[C@H](C(=O)N(C)C)C(C)(C)C [(R)-2-[(Formyl-hydroxy-amino)-methyl]-pent-4-enoic acid ((S)-1-dimethylcarbamoyl-2,2-dimethyl-propyl)-amide]
The IC50 of the first is 1.5-fold lower: 0.02 µM for the first, 0.03 µM for the second.

Going from `CN(C)C(=O)[C@@H](NC(=O)[C@@H](CN(O)C=O)CN1CCCCC1)C(C)(C)C` [(S)-2-{(R)-2-[(Formyl-hydroxy-amino)-methyl]-3-piperidin-1-yl-propionylamino}-3,3,N,N-tetramethyl-butyramide] to `CC[C@H](CN(O)C=O)C(=O)N[C@H](C(=O)N(C)C)C(C)(C)C` [(S)-2-{(R)-2-[(Formyl-hydroxy-amino)-methyl]-butyrylamino}-3,3,N,N-tetramethyl-butyramide], the IC50 falls from > 1 µM to 0.07 µM. The second is the more potent here.

`CCCCCCCC[C@H](CN(O)C=O)C(=O)N[C@H](C(=O)N(C)C)C(C)(C)C` [(R)-2-[(Formyl-hydroxy-amino)-methyl]-decanoic acid [1-((S)-dimethyl-carbamoyl)-2,2-dimethyl-propyl]-amide] and `CCCCCCC[C@H](CN(O)C=O)C(=O)N[C@H](C(=O)N(C)C)C(C)(C)C` [(R)-2-[(Formyl-hydroxy-amino)-methyl]-nonanoic acid ((S)-1-dimethylcarbamoyl-2,2-dimethyl-propyl)-amide] are within 1.5-fold of each other in IC50: 0.05 µM for the first, 0.04 µM for the second.

Going from `CCSC[C@H](CN(O)C=O)C(=O)N[C@H](C(=O)N(C)C)C(C)(C)C` [(S)-2-[(R)-2-Ethylsulfanylmethyl-3-(formyl-hydroxy-amino)-propionylamino]-3,3,N,N-tetramethyl-butyramide] to `CCC[C@H](CN(O)C=O)C(=O)N[C@H](C(=O)N(C)C)C(C)(C)C` [(R)-2-[(Formyl-hydroxy-amino)-methyl]-pentanoic acid ((S)-1-dimethylcarbamoyl-2,2-dimethyl-propyl)-amide], the IC50 rises from 0.02 µM to 0.05 µM (2.5-fold).

Compared with `C[C@H](CN(O)C=O)C(=O)N[C@H](C(=O)N(C)C)C(C)(C)C` [(S)-2-[(R)-3-(Formyl-hydroxy-amino)-2-methyl-propionylamino]-3,3,N,N-tetramethyl-butyramide], `CC(C)[C@H](CN(O)C=O)C(=O)N[C@H](C(=O)N(C)C)C(C)(C)C` [(R)-N-((S)-1-Dimethylcarbamoyl-2,2-dimethyl-propyl)-2-[(formyl-hydroxy-amino)-methyl]-3-methyl-butyramide] is 2-fold lower in IC50: 0.1 µM for the first, 0.05 µM for the second. The second is the more potent here.

Compared with `CCCC[C@@H](C(=O)N[C@H](C(=O)N(C)C)C(C)(C)C)C(C)N(O)C=O` (stereo partly drawn) [(R)-2-[1-(Formyl-hydroxy-amino)-ethyl]-hexanoic acid ((S)-1-dimethylcarbamoyl-2,2-dimethyl-propyl)-amide], `CCCCC[C@H](CN(O)C=O)C(=O)N[C@H](C(=O)N(C)C)C(C)(C)C` [(R)-2-[(Formyl-hydroxy-amino)-methyl]-heptanoic acid ((S)-1-dimethylcarbamoyl-2,2-dimethyl-propyl)-amide] is 60-fold lower in IC50: 0.6 µM for the first, 0.01 µM for the second. The second is the more potent here.

Compared with `CN(C)C(=O)[C@@H](NC(=O)[C@H](Cc1ccccc1)CN(O)C=O)C(C)(C)C` [(S)-2-[(R)-2-Benzyl-3-(formyl-hydroxy-amino)-propionylamino]-3,3,N,N-tetramethyl-butyramide], `CC#CC[C@H](CN(O)C=O)C(=O)N[C@H](C(=O)N(C)C)C(C)(C)C` [(R)-2-[(Formyl-hydroxy-amino)-methyl]-hex-4-ynoic acid ((S)-1-dimethylcarbamoyl-2,2-dimethyl-propyl)-amide] is 1.5-fold higher in IC50: 0.02 µM for the first, 0.03 µM for the second.

With `CCCCCC[C@H](CN(O)C=O)C(=O)N[C@H](C(=O)N(C)C)C(C)(C)C` [(R)-2-[(Formyl-hydroxy-amino)-methyl]-octanoic acid ((S)-1-dimethylcarbamoyl-2,2-dimethyl-propyl)-amide] the IC50 was 0.03 µM.
